System: yeast genes (expressed mRNA)
Assay: DNA chip measurement of expressed mRNA of yeast genes after culture with a toxic chemical substance
Type: cell-based, Saccharomyces cerevisiae S288C
Conditions: for level of expressed mRNA in the presence of chemical substance / level in the absence of chemical substance: cultured two hours with the chemical substance; for The level of expressed mRNA in the presence of chemical substance/The level of expressed mRNA in the absence of chemical substance: cultured two hours with substance
How it was run: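 Fluorescence ratio, treated over untreated, read by chip scanner; ratio of two or more counted significant. Cells: S288C yeast, YPD, 25° C, chemical added at log phase for 2 h at growth-inhibiting, sublethal level. Cy3/Cy5-labeled cDNA from oligo-dT-purified mRNA.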

[Cl][Pb][Cl] [(4), PbCl2]
level of expressed mRNA in the presence of chemical substance / level in the absence of chemical substance (yeast gene YDR133C): 2.0 | level of expressed mRNA in the presence of chemical substance / level in the absence of chemical substance (yeast gene YDR250C): 3.0 | level of expressed mRNA in the presence of chemical substance / level in the absence of chemical substance (yeast gene YDR278C): 1.0 | level of expressed mRNA in the presence of chemical substance / level in the absence of chemical substance (yeast gene YDR281C): 2.1 | The level of expressed mRNA in the presence of chemical substance/The level of expressed mRNA in the absence of chemical substance (yeast gene YDR330W): 0.8 | level of expressed mRNA in the presence of chemical substance / level in the absence of chemical substance (yeast gene YDR366C): 0.9 | The level of expressed mRNA in the presence of chemical substance/The level of expressed mRNA in the absence of chemical substance (yeast gene YDR411C): 1.2 | The level of expressed mRNA in the presence of chemical substance/The level of expressed mRNA in the absence of chemical substance (yeast gene YDR511W): 2.3 | The level of expressed mRNA in the presence of chemical substance/The level of expressed mRNA in the absence of chemical substance (yeast gene YDR545W): 0.7 | The level of expressed mRNA in the presence of chemical substance/The level of expressed mRNA in the absence of chemical substance (yeast gene YEL001C): 0.7 | The level of expressed mRNA in the presence of chemical substance/The level of expressed mRNA in the absence of chemical substance (yeast gene YER004W): 1.4 | The level of expressed mRNA in the presence of chemical substance/The level of expressed mRNA in the absence of chemical substance (yeast gene YER035W): 1.9 | The level of expressed mRNA in the presence of chemical substance/The level of expressed mRNA in the absence of chemical substance (yeast gene YER079W): 2.0 | The level of expressed mRNA in the presence of chemical substance/The level of expressed mRNA in the absence of chemical substance (yeast gene YER106W): 1.2 | The level of expressed mRNA in the presence of chemical substance/The level of expressed mRNA in the absence of chemical substance (yeast gene YER158C): 3.1 | The level of expressed mRNA in the presence of chemical substance/The level of expressed mRNA in the absence of chemical substance (yeast gene YER163C): 1.6 | The level of expressed mRNA in the presence of chemical substance/The level of expressed mRNA in the absence of chemical substance (yeast gene YER175C): 2.2 | The level of expressed mRNA in the presence of chemical substance/The level of expressed mRNA in the absence of chemical substance (yeast gene YFL006W): 1.0 | The level of expressed mRNA in the presence of chemical substance/The level of expressed mRNA in the absence of chemical substance (yeast gene YFL010C): 1.0 | The level of expressed mRNA in the presence of chemical substance/The level of expressed mRNA in the absence of chemical substance (yeast gene YFL024C): 0.7 | The level of expressed mRNA in the presence of chemical substance/The level of expressed mRNA in the absence of chemical substance (yeast gene YFL032W): 0.8 | level of expressed mRNA in the presence of chemical substance / level in the absence of chemical substance (yeast gene YFR026C): 0.8 | The level of expressed mRNA in the presence of chemical substance/The level of expressed mRNA in the absence of chemical substance (yeast gene YGL037C): 2.1 | The level of expressed mRNA in the presence of chemical substance/The level of expressed mRNA in the absence of chemical substance (yeast gene YGL047W): 2.3 | The level of expressed mRNA in the presence of chemical substance/The level of expressed mRNA in the absence of chemical substance (yeast gene YGL053W): 2.5 | level of expressed mRNA in the presence of chemical substance / level in the absence of chemical substance (yeast gene YGL088W): 1.1 | The level of expressed mRNA in the presence of chemical substance/The level of expressed mRNA in the absence of chemical substance (yeast gene YGL121C): 4.2 | The level of expressed mRNA in the presence of chemical substance/The level of expressed mRNA in the absence of chemical substance (yeast gene YGL199C): 1.0 | level of expressed mRNA in the presence of chemical substance / level in the absence of chemical substance (yeast gene YGR038W): 0.8 | The level of expressed mRNA in the presence of chemical substance/The level of expressed mRNA in the absence of chemical substance (yeast gene YGR101W): 1.1 | The level of expressed mRNA in the presence of chemical substance/The level of expressed mRNA in the absence of chemical substance (yeast gene YGR110W): 5.9 | The level of expressed mRNA in the presence of chemical substance/The level of expressed mRNA in the absence of chemical substance (yeast gene YGR130C): 1.6 | level of expressed mRNA in the presence of chemical substance / level in the absence of chemical substance (yeast gene YGR139W): 0.7 | The level of expressed mRNA in the presence of chemical substance/The level of expressed mRNA in the absence of chemical substance (yeast gene YGR154C): 0.5 | The level of expressed mRNA in the presence of chemical substance/The level of expressed mRNA in the absence of chemical substance (yeast gene YGR221C): 1.4 | level of expressed mRNA in the presence of chemical substance / level in the absence of chemical substance (yeast gene YGR243W): 5.0 | level of expressed mRNA in the presence of chemical substance / level in the absence of chemical substance (yeast gene YGR293C): 0.0 | level of expressed mRNA in the presence of chemical substance / level in the absence of chemical substance (yeast gene YHL006C): 0.6 | level of expressed mRNA in the presence of chemical substance / level in the absence of chemical substance (yeast gene YHR095W): 2.1 | level of expressed mRNA in the presence of chemical substance / level in the absence of chemical substance (yeast gene YHR105W): 6.3 | The level of expressed mRNA in the presence of chemical substance/The level of expressed mRNA in the absence of chemical substance (yeast gene YHR138C): 2.8 | level of expressed mRNA in the presence of chemical substance / level in the absence of chemical substance (yeast gene YHR181W): 1.4 | The level of expressed mRNA in the presence of chemical substance/The level of expressed mRNA in the absence of chemical substance (yeast gene YHR199C): 2.0 | The level of expressed mRNA in the presence of chemical substance/The level of expressed mRNA in the absence of chemical substance (yeast gene YIL023C): 1.8 | The level of expressed mRNA in the presence of chemical substance/The level of expressed mRNA in the absence of chemical substance (yeast gene YIL041W): 1.3 | The level of expressed mRNA in the presence of chemical substance/The level of expressed mRNA in the absence of chemical substance (yeast gene YIL087C): 1.6 | level of expressed mRNA in the presence of chemical substance / level in the absence of chemical substance (yeast gene YIL127C): 1.2 | level of expressed mRNA in the presence of chemical substance / level in the absence of chemical substance (yeast gene YJL017W): 1.1 | level of expressed mRNA in the presence of chemical substance / level in the absence of chemical substance (yeast gene YJL037W): 2.4 | The level of expressed mRNA in the presence of chemical substance/The level of expressed mRNA in the absence of chemical substance (yeast gene YJL057C): 1.7 | The level of expressed mRNA in the presence of chemical substance/The level of expressed mRNA in the absence of chemical substance (yeast gene YJL066C): 2.5 | The level of expressed mRNA in the presence of chemical substance/The level of expressed mRNA in the absence of chemical substance (yeast gene YJL082W): 1.1

Source: patent publication US20100041089A1, “IMPROVED METHOD FOR DETECTING CHEMICAL […]” (priority 2006, published 2010)
